Test results reported in the NIST ThermoML archive (doi:10.1016/j.jct.2016.02.015).
± gives the expanded uncertainty stated by the source.

Experiment: excess molar enthalpy (molar enthalpy of mixing); xn = mol fraction of the nth substance listed
Details: 100 kPa, Liquid, Calvet calorimetry

[Li] [lithium] + [Ga]
Details | excess molar enthalpy [kJ/mol]
873 K, x1 = 0.703 | -19.4 ± 0.8
873 K, x1 = 0.7734 | -16.2 ± 0.8
873 K, x1 = 0.8058 | -14.4 ± 0.8
873 K, x1 = 0.8391 | -12.2 ± 0.8
873 K, x1 = 0.865 | -10.5 ± 0.8
873 K, x1 = 0.894 | -8.5 ± 0.8
873 K, x1 = 0.9218 | -6.4 ± 0.8
873 K, x1 = 0.9468 | -4.1 ± 0.8
873 K, x1 = 0.9801 | -1.4 ± 0.8
992 K, x1 = 0.0908 | -5.1 ± 0.5
992 K, x1 = 0.1797 | -10.2 ± 0.5
992 K, x1 = 0.2283 | -12.8 ± 0.4
992 K, x1 = 0.3064 | -16.1 ± 0.4
992 K, x1 = 0.3748 | -18.7 ± 0.4
1039 K, x1 = 0.4284 | -19.8 ± 0.3
1039 K, x1 = 0.5421 | -21.2 ± 0.3
1039 K, x1 = 0.652 | -20 ± 0.3
1039 K, x1 = 0.7322 | -17 ± 0.2
1039 K, x1 = 0.7709 | -14.8 ± 0.2
1039 K, x1 = 0.7991 | -12.8 ± 0.2
1039 K, x1 = 0.8282 | -11.2 ± 0.2
